Experimental data: paper PMC10448230 (RSC Advances, 2023)
Like-named read-outs stand apart in the source and are kept apart here.

Columns and labels:
[1] = molecular target: electric eel acetylcholinesterase (type-IV-S) (Electrophorus electricus, UniProt O42275); assay: biochemical; type: biochemical
[2] = molecular target: equine butyrylcholinesterase (Equus caballus, UniProt P81908); assay: Butyrylcholinesterase inhibition; type: biochemical
Sequence of equine butyrylcholinesterase (P81908 whole entry): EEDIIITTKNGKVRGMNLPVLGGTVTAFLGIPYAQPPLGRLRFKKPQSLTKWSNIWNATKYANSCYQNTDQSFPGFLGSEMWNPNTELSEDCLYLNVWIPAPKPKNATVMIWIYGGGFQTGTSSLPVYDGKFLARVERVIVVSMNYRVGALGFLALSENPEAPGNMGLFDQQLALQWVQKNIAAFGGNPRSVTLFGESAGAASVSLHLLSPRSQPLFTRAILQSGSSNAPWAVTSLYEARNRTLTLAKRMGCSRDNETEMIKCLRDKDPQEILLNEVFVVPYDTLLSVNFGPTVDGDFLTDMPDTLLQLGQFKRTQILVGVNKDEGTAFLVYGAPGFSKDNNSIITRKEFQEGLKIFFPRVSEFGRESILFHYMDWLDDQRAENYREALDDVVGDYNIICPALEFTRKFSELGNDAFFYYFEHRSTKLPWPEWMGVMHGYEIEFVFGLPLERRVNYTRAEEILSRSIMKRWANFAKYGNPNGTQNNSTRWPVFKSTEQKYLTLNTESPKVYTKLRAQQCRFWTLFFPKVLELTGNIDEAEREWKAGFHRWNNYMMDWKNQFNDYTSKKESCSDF

Sequence of electric eel acetylcholinesterase (type-IV-S) (O42275 24-633): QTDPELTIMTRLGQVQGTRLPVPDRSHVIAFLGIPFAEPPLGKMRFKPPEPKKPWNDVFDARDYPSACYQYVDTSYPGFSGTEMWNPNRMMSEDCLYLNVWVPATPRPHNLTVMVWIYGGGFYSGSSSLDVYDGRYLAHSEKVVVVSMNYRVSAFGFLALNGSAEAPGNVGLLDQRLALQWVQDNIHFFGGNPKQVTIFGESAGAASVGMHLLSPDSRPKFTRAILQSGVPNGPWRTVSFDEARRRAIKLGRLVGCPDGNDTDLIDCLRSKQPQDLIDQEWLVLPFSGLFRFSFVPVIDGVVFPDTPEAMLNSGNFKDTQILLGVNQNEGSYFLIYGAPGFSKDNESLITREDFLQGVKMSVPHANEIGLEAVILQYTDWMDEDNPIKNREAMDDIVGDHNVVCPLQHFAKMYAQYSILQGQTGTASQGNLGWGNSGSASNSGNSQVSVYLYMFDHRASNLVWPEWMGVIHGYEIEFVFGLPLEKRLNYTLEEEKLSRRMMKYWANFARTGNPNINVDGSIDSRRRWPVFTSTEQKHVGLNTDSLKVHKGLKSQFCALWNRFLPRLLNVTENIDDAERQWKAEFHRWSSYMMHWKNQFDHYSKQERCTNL

| Compound | IC50 [1] | IC50 [2] | IC50 ([1]; read-out: AChE IC50 (μM) ± SD, NA = not active, galantamine as positive control) | IC50 ([2]; read-out: BChE IC50 (μM) ± SD, NA = not active, galantamine as positive control) |
| --- | --- | --- | --- | --- |
| CCCC/C=N/NC(=O)COc1ccc(Sc2ccc(OCC(=O)N/N=C/CCCC)cc2)cc1 [4x, 2,2′-((Thiobis(4,1-phenylene))bis(oxy))bis(N′-((E)-pentylidene)acetohydrazide)] | 186.3 ± 0.876 µM | 103.1 ± 0.877 µM | – | – |
| 2,2′-((Thiobis(4,1-phenylene))bis(oxy))bis(N′-((E)-4-fluorobenzylidene)acetohydrazide) [4s] | – | – | 91.5 ± 0.615 µM | 36.4 ± 0.702 µM |
| CCC/C=N/NC(=O)COc1ccc(Sc2ccc(OCC(=O)N/N=C/CCC)cc2)cc1 [4y, 2,2′-((Thiobis(4,1-phenylene))bis(oxy))bis(N′-((E)-butylidene)acetohydrazide)] | 122.6 ± 0.943 µM | 101.1 ± 0.938 µM | – | – |
